Reference: US11028051B2, “Tetrahydroquinoline-based bromodomain inhibitors” (St. Jude Children's Research Hospital, priority 2016, dated 2021)
Like-named read-outs stand apart in the source and are kept apart here.

Experiments:
Assay in all cases: competitive TR-FRET assay, BET-BD with acetylated peptide ligand
Format in all cases: binding
BRD2-BD1 = BRD2-BD1 (Homo sapiens (Human), UniProt P25440); conditions: BRD2-BD1; Table 11 additional modifications; read-out: 2.1 EC50
Protocol: (§1) Inhibitor potency was determined using a competitive TR-FRET assay as detailed herein, measuring interaction of the respective BET-BD with an acetylated peptide ligand (Table 2).

BRD2-BD2 = BRD2-BD2 (Homo sapiens (Human), UniProt P25440); conditions: for EC50: Table 11 additional modifications; for 2.1/2.2: ratio of BRD2-BD1 EC50 to BRD2-BD2 EC50 (selectivity)
Protocol: as §1

BRDT = BRDT (Homo sapiens, UniProt Q58F21); conditions: BRDT; Table 11 additional modifications; read-out: BRDT EC50
Protocol: as §1

BRD3-BD1 = BRD3-BD1 (Homo sapiens (Human), UniProt Q15059); conditions: BRD3-BD1; Table 11 additional modifications; read-out: 3.1 EC50
Protocol: as §1

Chain of BRD2-BD1 (P25440 74-180): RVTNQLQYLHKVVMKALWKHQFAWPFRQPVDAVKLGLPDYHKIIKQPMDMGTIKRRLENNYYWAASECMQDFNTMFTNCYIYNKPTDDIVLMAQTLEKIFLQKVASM
Chain of BRD2-BD2 (P25440 344-453): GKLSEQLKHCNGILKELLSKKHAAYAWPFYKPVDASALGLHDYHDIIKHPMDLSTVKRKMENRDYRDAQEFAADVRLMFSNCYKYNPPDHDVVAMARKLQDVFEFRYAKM
Chain of BRD3-BD1 (Q15059 34-140): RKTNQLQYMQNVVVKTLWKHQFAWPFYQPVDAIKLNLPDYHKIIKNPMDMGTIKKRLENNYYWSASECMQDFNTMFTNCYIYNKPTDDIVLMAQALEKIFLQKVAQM

SMILES | EC50 (BRD2-BD1) [µM] | EC50 (BRD2-BD2; BRD2-BD2, read-out: 2.2 EC50) [µM] | 2.1/2.2 (BRD2-BD2) | further results
CC(=O)Nc1cccc(-c2ccc3c(c2)[C@H](Nc2ccc(C(C)=O)cc2)C[C@H](C)N3C(C)=O)c1 [compound 17] | 1.1 | 0.07 | 16 | EC50 (BRDT): 4.6 µM
CC(=O)Nc1ccc(-c2ccc3c(c2)[C@H](Nc2ccc(Cl)cc2)C[C@H](C)N3C(C)=O)cc1 [compound 48] | 1.9 | 0.36 | 5.3 | EC50 (BRD3-BD1): 1.9 µM; EC50 (BRDT): 5.3 µM
CC(=O)Nc1cccc(-c2ccc3c(c2)[C@H](NC2CCN(C)CC2)C[C@H](C)N3C(C)=O)c1 [compound 119] |  |  | 2.9 | 
CC(=O)Nc1cccc(-c2ccc3c(c2)[C@H](Nc2ccc(NC(=O)CO)cc2)C[C@H](C)N3C(C)=O)c1 [compound 121] |  |  | 33 | 
CC(=O)N(c1ccc(NCC2CC2)cc1)[C@@H]1C[C@H](C)N(C(C)=O)c2ccc(-c3cccc(NC(=O)OC(C)(C)C)c3)cc21 [compound 122] |  |  | 70 | 
CC(=O)Nc1cccc(-c2ccc3c(c2)[C@H](Nc2ccc(NC(=O)C4CC4)cc2)C[C@H](C)N3C(C)=O)c1 [compound 123] |  |  | >1000 | 
CC(=O)N(c1ccc(NCCC(C)C)cc1)[C@@H]1C[C@H](C)N(C(C)=O)c2ccc(-c3cccc(NC(=O)OC(C)(C)C)c3)cc21 [compound 124] |  |  | 4.0 | 
COC(=O)c1ccc(N[C@@H]2C[C@H](C)N(C(C)=O)c3ccc(-c4c[nH]cn4)cc32)cc1 [compound 156] |  |  | 9.4 | 
COC(=O)c1ccc(N[C@@H]2C[C@H](C)N(C(C)=O)c3ccc(-c4cn(C)cn4)cc32)cc1 [compound 157] |  |  | 52 | 
COC(=O)c1ccc(CN(Cc2ccc(C(=O)OC)cc2)[C@@H]2C[C@H](C)N(C(C)=O)c3ccc(-c4cccc(NC(C)=O)c4)cc32)cc1 [compound 158] |  |  | 11 | 
COC(=O)c1ccc(CN[C@@H]2C[C@H](C)N(C(C)=O)c3ccc(-c4cccc(NC(C)=O)c4)cc32)cc1 [compound 159] |  |  | 2.9 | 
CC(=O)Nc1cccc(-c2ccc3c(c2)[C@H](Nc2ccc(C(=O)COC(C)=O)cc2)C[C@H](C)N3C(C)=O)c1 [compound 162] |  |  | 21 | 
CC(=O)Nc1cccc(-c2ccc3c(c2)[C@H](Nc2cccc(CN)c2)C[C@H](C)N3C(C)=O)c1 [compound 163] |  |  | 6.7 | 
COc1cccc(NC2CCN(C(C)=O)c3ccc(-c4cccc(NC(C)=O)c4)cc32)c1 (stereo not drawn) [compound 178] |  |  | 22 | 
CC(=O)N1c2ccc(-c3cccc(NCCC(F)(F)F)c3)cc2[C@H](Nc2ccc(C#N)cc2)C[C@@H]1C [compound 180] |  |  | 13 | 
CC(=O)Nc1cccc(-c2ccc3c(c2)[C@H](Nc2cccc(C(F)(F)F)c2)C[C@H](C)N3C(C)=O)c1 [compound 181] | 8 | 0.17 | 8.4 | 
CC(=O)N1c2ccc(-c3ccn(C)n3)cc2[C@H](Nc2ccc(C#N)cc2)C[C@@H]1C [compound 182] |  |  | 23 | 
CC(=O)N1c2ccc(-c3cccc(NCC4CCOC4)c3)cc2[C@H](Nc2ccc(C#N)cc2)C[C@@H]1C (stereo partly drawn) [compound 183] |  |  | 27 | 
CC(=O)N1c2ccc(-c3cccc(NC(=O)C(C)C)c3)cc2[C@H](Nc2ccc(C#N)cc2)C[C@@H]1C [compound 184] | 0.67 | 0.11 | 14 | 
CC(=O)N1c2ccc(-c3cccc(NC(=O)C(C)(C)C)c3)cc2[C@H](Nc2ccc(C#N)cc2)C[C@@H]1C [compound 185] | 1.8 | 0.029 |  | 
CC(=O)Nc1cccc(-c2ccc3c(c2)[C@H](Nc2ccc(C#N)c(Cl)c2)C[C@H](C)N3C(C)=O)c1 [compound 186] | 2.1 | 0.059 |  | 
CC(=O)Nc1cccc(-c2ccc3c(c2)[C@H](Nc2ccccc2Cl)C[C@H](C)N3C(C)=O)c1 [compound 187] | 8.7 | 0.12 |  | 
CC(=O)Nc1cccc(-c2ccc3c(c2)[C@H](Nc2ccc4c(c2)CCNC4)C[C@H](C)N3C(C)=O)c1 [compound 188] | 0.11 | 0.004 |  | 
COc1cc(C#N)ccc1N[C@@H]1C[C@H](C)N(C(C)=O)c2ccc(-c3cccc(NC(C)=O)c3)cc21 [compound 189] | 0.67 | 0.017 | 48 | 
CC(=O)Nc1cccc(-c2ccc3c(c2)[C@H](Nc2cc(F)c(C#N)c(F)c2)C[C@H](C)N3C(C)=O)c1 [compound 190] | 2.2 | 0.12 | 37 | 
CC(=O)Nc1cccc(-c2ccc3c(c2)[C@H](Nc2ccc(C#N)c(C(F)(F)F)c2)C[C@H](C)N3C(C)=O)c1 [compound 192] | 4.8 |  | 6.3 | EC50 (BRD2-BD2; 2.2 EC50, BRD2-BD2): 0.052 µM

Continued, in another order:

EC50 (BRD2-BD1) [µM] | EC50 (BRD2-BD2; BRD2-BD2, read-out: 2.2 EC50) [µM] | 2.1/2.2 (BRD2-BD2) | SMILES | further results
1.2 | 0.047 | 26 | COc1cc(N[C@@H]2C[C@H](C)N(C(C)=O)c3ccc(-c4cccc(NC(C)=O)c4)cc32)ccc1C#N [compound 191] | 
1 |  | 63 | CC(=O)Nc1cccc(-c2ccc3c(c2)[C@H](Nc2ccc(C#N)c(F)c2)C[C@H](C)N3C(C)=O)c1 [compound 193] | 
2.2 | 0.06 | 35 | CC(=O)Nc1cccc(-c2ccc3c(c2)[C@H](Nc2ccccc2C#N)C[C@H](C)N3C(C)=O)c1 [compound 194] | 
0.87 | 0.017 | 73 | CC(=O)Nc1cccc(-c2ccc3c(c2)[C@H](Nc2ccc(C#N)c(C)c2)C[C@H](C)N3C(C)=O)c1 [compound 195] | 
2.17 | 0.06 | 27 | CC(=O)Nc1cccc(-c2ccc3c(c2)[C@H](Nc2ccc(C#N)cc2Cl)C[C@H](C)N3C(C)=O)c1 [compound 196] | 
3.5 | 0.054 | 39 | CC(=O)Nc1cccc(-c2ccc3c(c2)[C@H](Nc2ccccc2Cl)C[C@H](C)N3C(C)=O)c1 [compound 197] | 
3.3 | 0.057 | 19 | CC(=O)Nc1cccc(-c2ccc3c(c2)[C@H](Nc2cccc(Cl)c2)C[C@H](C)N3C(C)=O)c1 [compound 198] | 
0.89 | 0.019 | 26 | CC(=O)Nc1cccc(-c2ccc3c(c2)[C@H](Nc2ccc(C#N)cc2C)C[C@H](C)N3C(C)=O)c1 [compound 199] | 
2 |  | 92 | CC(=O)Nc1cccc(-c2ccc3c(c2)[C@H](Nc2ccccc2C)C[C@H](C)N3C(C)=O)c1 [compound 200] | 
 |  | 36 | CC(=O)N1c2ccc(-c3cc[nH]n3)cc2[C@H](Nc2ccc(F)c(F)c2)C[C@@H]1C [compound 202] | 
 |  | 51 | CC(=O)N1c2ccc(-c3cc[nH]n3)cc2[C@H](Nc2ccccc2Cl)C[C@@H]1C [compound 203] | 
 |  | 36 | CC(=O)Nc1cccc(-c2ccc3c(c2)[C@H](Nc2ccc(F)cc2Cl)C[C@H](C)N3C(C)=O)c1 [compound 204] | 
 |  | 64 | CC(=O)N1c2ccc(-c3cccc(NC(=O)C(C)(C)C)c3)cc2[C@H](Nc2ccccc2Cl)C[C@@H]1C [compound 205] | 
 |  | 57 | CC(=O)N1c2ccc(-c3cccc(NC(=O)C(C)(C)C)c3)cc2[C@H](Nc2ccc(Cl)cc2)C[C@@H]1C [compound 206] | 
 |  | 44 | CC(=O)N1c2ccc(-c3ccn(-c4ccc(C#N)cc4)n3)cc2[C@H](Nc2ccc(C#N)cc2)C[C@@H]1C [compound 207] | 
